Assay results: paper doi:10.1101/2025.11.21.689733v1, “Identification and Characterization of a Small Molecule Ligand for the Huntingtin-HAP40 Complex” (biorxiv, 2025)

Key:
Assay type in all cases: binding
HTTQ23-HAP40 (HTT-HAP40) [1] = target: T1, HTTQ23-HAP40 (HTT-HAP40) (Homo sapiens, UniProt P23610+P42858, P42858:INS38QQ); test: SPR, steady state, […] model; settings: read-out: apparent KD
T1 construct: full-length HTT (3144 aa, polyQ tract Q23) co-complex with HAP40, ~390 kDa; C-terminal Avi-tag biotinylated (BirA) for SPR; Sf9 baculovirus

HTTQ54-HAP40 = target: T2, HTTQ54-HAP40 (Homo sapiens, UniProt P23610+P42858, P42858:INS38QQQQQQQQQQQQQQQQQQQQQQQQQQQQQQQQQ); test: SPR
T2 construct: gene HTT; full-length HTT with polyQ tract of 54 residues in complex with HAP40; C-terminal Avi-tag biotinylated; Sf9 baculovirus
Text: SPR on HTTQ54-HAP40 | binding affinity was indistinguishable between wild-type (Q23) HTT-HAP40 and its expanded form (Q54)

HTTQ23-HAP40 (HTT-HAP40) [2] = target: T1, HTTQ23-HAP40 (HTT-HAP40); test: SPR, […] model
HTTQ23-HAP40 (HTT-HAP40) [3] = target: T1, HTTQ23-HAP40 (HTT-HAP40); test: SPR, […] model; settings: pH 7.4, 150 mM NaCl, 4% DMSO

T1 sequence (P42858 with tags, fused parts or gaps INS38QQ): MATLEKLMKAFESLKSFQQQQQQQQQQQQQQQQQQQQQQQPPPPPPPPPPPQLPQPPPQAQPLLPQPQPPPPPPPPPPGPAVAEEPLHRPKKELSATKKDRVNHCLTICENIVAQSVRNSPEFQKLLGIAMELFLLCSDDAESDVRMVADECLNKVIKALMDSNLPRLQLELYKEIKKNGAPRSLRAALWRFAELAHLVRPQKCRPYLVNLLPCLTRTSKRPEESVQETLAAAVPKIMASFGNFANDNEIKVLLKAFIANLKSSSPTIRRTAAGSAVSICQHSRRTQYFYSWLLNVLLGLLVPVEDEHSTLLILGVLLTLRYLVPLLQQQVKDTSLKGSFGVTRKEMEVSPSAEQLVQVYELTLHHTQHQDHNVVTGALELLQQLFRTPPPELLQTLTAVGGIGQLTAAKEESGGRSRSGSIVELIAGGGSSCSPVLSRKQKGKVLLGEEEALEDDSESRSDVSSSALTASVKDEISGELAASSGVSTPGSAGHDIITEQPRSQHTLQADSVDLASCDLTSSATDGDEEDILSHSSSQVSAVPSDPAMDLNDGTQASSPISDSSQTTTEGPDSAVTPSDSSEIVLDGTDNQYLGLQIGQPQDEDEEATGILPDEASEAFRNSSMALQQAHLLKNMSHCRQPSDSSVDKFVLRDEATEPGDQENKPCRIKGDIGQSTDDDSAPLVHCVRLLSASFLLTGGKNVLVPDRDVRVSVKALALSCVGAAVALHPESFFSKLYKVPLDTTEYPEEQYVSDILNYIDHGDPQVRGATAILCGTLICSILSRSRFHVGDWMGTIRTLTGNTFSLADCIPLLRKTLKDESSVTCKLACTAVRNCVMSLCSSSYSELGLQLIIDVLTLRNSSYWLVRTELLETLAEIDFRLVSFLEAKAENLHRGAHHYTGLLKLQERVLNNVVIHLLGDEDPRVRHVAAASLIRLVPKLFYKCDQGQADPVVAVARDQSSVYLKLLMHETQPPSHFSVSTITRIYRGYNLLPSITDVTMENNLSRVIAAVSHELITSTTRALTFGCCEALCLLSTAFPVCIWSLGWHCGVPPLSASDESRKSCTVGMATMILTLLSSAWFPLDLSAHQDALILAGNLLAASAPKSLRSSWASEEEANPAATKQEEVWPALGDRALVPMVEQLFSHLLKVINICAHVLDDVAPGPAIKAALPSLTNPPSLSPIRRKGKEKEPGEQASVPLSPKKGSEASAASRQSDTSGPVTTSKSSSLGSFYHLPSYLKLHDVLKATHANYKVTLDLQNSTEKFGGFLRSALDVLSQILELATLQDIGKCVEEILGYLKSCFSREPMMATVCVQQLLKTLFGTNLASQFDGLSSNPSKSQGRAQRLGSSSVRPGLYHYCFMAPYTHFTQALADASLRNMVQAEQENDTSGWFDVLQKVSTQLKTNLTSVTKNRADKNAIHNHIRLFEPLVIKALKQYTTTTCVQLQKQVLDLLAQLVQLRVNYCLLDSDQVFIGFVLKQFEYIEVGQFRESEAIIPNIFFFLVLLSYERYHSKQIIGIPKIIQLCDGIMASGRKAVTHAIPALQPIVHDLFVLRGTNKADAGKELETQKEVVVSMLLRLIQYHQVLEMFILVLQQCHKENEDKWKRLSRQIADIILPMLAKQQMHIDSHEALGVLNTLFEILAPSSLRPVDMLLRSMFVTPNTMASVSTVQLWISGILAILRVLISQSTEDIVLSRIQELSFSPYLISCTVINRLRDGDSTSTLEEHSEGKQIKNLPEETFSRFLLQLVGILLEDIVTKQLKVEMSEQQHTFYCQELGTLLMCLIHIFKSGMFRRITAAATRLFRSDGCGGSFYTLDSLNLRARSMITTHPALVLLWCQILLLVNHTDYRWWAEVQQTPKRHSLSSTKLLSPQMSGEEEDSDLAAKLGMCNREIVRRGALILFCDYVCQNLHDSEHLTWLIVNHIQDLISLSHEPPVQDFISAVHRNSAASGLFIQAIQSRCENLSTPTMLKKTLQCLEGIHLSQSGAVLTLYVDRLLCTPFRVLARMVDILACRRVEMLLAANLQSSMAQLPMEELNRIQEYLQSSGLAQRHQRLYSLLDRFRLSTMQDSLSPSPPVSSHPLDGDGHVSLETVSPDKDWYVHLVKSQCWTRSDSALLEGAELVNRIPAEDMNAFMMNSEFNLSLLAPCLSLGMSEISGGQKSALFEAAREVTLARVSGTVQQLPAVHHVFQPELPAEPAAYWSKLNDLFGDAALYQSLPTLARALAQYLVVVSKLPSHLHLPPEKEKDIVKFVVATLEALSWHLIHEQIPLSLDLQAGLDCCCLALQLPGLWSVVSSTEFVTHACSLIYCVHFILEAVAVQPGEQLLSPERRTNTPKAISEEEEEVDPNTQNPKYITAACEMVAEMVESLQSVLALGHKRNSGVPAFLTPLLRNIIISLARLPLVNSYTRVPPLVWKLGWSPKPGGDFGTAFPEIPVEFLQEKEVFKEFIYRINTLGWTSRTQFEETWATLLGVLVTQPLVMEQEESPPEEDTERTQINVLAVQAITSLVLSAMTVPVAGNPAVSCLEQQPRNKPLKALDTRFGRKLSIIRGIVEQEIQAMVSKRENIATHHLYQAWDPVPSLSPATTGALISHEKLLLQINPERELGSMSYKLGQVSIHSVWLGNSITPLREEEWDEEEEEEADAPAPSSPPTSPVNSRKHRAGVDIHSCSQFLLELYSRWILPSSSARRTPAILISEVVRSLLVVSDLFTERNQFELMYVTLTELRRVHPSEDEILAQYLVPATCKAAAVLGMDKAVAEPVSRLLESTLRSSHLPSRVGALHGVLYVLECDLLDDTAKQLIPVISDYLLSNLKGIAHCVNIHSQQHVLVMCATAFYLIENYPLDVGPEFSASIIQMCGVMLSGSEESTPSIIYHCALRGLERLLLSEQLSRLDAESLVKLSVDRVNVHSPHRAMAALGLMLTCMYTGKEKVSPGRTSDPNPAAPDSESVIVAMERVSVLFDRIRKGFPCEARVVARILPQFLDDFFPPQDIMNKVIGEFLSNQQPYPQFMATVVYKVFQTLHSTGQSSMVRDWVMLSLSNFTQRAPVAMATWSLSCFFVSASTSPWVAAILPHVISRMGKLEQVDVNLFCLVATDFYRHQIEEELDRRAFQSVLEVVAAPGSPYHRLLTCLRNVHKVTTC
T1 sequence (P23610 whole entry, stated change not applied): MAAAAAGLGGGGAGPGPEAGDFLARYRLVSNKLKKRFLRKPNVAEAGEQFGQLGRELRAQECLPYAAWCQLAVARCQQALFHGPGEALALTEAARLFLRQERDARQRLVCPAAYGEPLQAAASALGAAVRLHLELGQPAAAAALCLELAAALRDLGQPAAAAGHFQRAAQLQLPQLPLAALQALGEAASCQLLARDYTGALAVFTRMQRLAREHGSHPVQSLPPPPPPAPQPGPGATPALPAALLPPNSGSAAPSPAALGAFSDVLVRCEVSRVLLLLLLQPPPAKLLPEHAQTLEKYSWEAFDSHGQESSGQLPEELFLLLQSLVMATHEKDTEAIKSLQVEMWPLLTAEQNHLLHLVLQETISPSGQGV

Cn1ncc2ccc(CNc3ccccc3C3CC3(F)F)cc21 (racemic) [compound 1, AS-MS Hit 1] showed a Kd (HTTQ23-HAP40 (HTT-HAP40) [1]) of 5 ± 2 µM and a Kd (HTTQ54-HAP40) of 4 ± 1 µM.
Cn1ncc2ccc(CNc3ccccc3[C@H]3CC3(F)F)cc21 (single isomer, unassigned; peak 2) [compound 1, Peak 2 of AS-MS Hit 1] gave a Kd (HTTQ23-HAP40 (HTT-HAP40) [1]) of 4 ± 2 µM.
Work on Cn1ncc2ccc(CNc3ccccc3C3CC(F)(F)C3)cc21 [compound 3, 3] yielded a Kd (HTTQ23-HAP40 (HTT-HAP40) [2]) of 3.5 ± 1 µM.
In the case of Cc1nn(C)c2cc(CNc3ccccc3C3CCC(F)(F)C3)ccc12 (centres unmarked) [compound 21, 21], the KD (HTTQ23-HAP40 (HTT-HAP40) [3]) is reported as “These modifications were well-tolerated but did not improve affinity”.
